In patent US20260209212A1, “HETEROCYCLIC GLP-1 AGONISTS” (Gasherbrum Bio, Inc., priority 2022, published 2026):

biological target: GLP-1 Receptor (Homo sapiens, UniProt P43220); assay: GLP-1R agonist cAMP stimulation assay; type: cell-based; details: HEK293/GLP1R/CRE-LUC cells stably expressing the GLP-1 Receptor; cAMP dynamic 2 Kit (Cisbio); 30 min at 37° C.
Procedure: Activation of GLP-1 receptor is known to stimulate cyclic AMP (cAMP) production in cells which indicates primary coupling to the G as subunit of the G protein heterotrimeric complex.
To optimize functional activity directed toward G as coupling, a HEK293/CRE-Luc cell line developed by HDB stably expressing the GLP-1 Receptor was used. 200× concentration of compound working solutions were prepared (Agilent Technologies Bravo) with ½ log serial dilution in 384-well Echo LDV plate (Labcyte, Cat #LP-0200). 50 nL/well 200× concentration of compound working solutions were moved to 384-well white low volume plate (Greiner, Cat #784075) using Labcyte ECHO550.1×10^5 cells/mL HEK293/GLP1R/CRE-LUC (HD Biosciences) cell suspensions prepared with assay buffer [DPBS containing 0.5 mM IBMX (Sigma, Cat #I5879) and 0.1% BSA (GENVIEW, Cat #FA016-100 g)], 10 μL cell suspensions were added to each well of previous generated assay plate which already contains 50 nL compound at 200× concentration using ThermoFisher Multidrop Combi (1000 cells/well). Seal the plate and incubate at 37° C. with 5% CO2 for 30 min.
After incubation the cAMP assay signal was generated using cAMP dynamic 2 Kit (Cisbio). 5 μL cAMP-d2 working solution was added to each well, followed with 5 μL Anti-cAMP antibody-cryptate working solution added to each well using ThermoFisher Multidrop Combi. Incubate at room temperature for 1 hour protected from light. Read the fluorescence at 665 and 615 nm with Reader PerkinElmer EnVision.

Chain of GLP-1 Receptor (P43220 24-463): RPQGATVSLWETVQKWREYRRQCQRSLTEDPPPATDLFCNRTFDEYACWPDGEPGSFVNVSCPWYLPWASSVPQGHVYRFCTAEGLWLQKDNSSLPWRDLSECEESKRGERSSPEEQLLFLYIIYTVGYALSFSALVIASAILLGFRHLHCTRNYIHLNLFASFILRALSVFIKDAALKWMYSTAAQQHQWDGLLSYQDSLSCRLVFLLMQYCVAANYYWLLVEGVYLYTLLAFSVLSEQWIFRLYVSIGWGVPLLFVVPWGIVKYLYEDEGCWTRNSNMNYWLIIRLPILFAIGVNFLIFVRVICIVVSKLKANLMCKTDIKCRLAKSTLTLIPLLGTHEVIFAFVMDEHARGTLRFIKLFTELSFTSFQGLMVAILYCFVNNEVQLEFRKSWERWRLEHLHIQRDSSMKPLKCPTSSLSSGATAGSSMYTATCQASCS

SMILES	EC50
O=C(O)c1ccc2nc(CN3CCC(c4cccc5c4OC[C@@H](c4ccc6cnn(CC(F)F)c6c4)O5)CC3)n(C[C@@H]3CCO3)c2c1 [Compound 102, 2-({4-[(2R)-2-[1-(2,2-difluoroethyl)-1H-indazol-6-yl]-2,3-dihydro-1,4-benzodioxin-5-yl]piperidin-1-yl}methyl)-1-{[(2S)-oxetan-2-yl]methyl}-1H-1,3-benzodiazole-6-carboxylic acid]	65 pM
CCn1cncc1Cn1c(CN2CCC(c3cccc4c3OC[C@@H](c3ccc(C#N)cc3)O4)CC2)nc2ccc(C(=O)O)cc21 [Compound 105]	12 pM
N#Cc1ccc([C@@H]2COc3c(cccc3C3CCN(Cc4nc5ccc(C(=O)O)cc5n4CC4CCOC4)CC3)O2)cc1 (stereo partly drawn) [Compound 106, 2-({4-[(2R)-2-(4-cyanophenyl)-2,3-dihydro-1,4-benzodioxin-5-yl]piperidin-1-yl}methyl)-1-[(oxolan-3-yl)methyl]-1H-1,3-benzodiazole-6-carboxylic acid]	1600 pM
O=C(O)c1cc(F)c2nc(CN3CCC(c4cccc5c4OC[C@@H](c4ccc(Cl)cc4)O5)CC3)n(C[C@@H]3CCO3)c2c1 [Compound 111, 2-({4-[(2R)-2-(4-chlorophenyl)-2,3-dihydro-1,4-benzodioxin-5-yl]piperidin-1-yl}methyl)-4-fluoro-1-{[(2S)-oxetan-2-yl]methyl}-1H-1,3-benzodiazole-6-carboxylic acid]	17 pM
N#CCC1(Cn2c(CN3CCC(c4cccc5c4OC[C@@H](c4ccc(C#N)cc4)O5)CC3)nc3c(F)cc(C(=O)O)cc32)CC1 [Compound 112]	26 pM
CC(=O)N1C[C@H](F)C[C@@H]1Cn1c(CN2CCC(c3cccc4c3OC[C@@H](c3ccc(C#N)cc3)O4)CC2)nc2ccc(C(=O)O)cc21 [Compound 113]	4000 pM
CO[C@@H]1COC[C@@H]1n1c(CN2CCC(c3cccc4c3OC[C@@H](c3ccc(C#N)cc3)O4)CC2)nc2ccc(C(=O)O)cc21 [Compound 114, 2-({4-[(2R)-2-(4-cyanophenyl)-2,3-dihydro-1,4-benzodioxin-5-yl]piperidin-1-yl}methyl)-1-[(3S,4S)-4-methoxyoxolan-3-yl]-1H-1,3-benzodiazole-6-carboxylic acid]	24 pM
O=C(O)c1ccc2nc(CN3CC=C(c4cccc5c4OC[C@@H](c4ccc6cnn(CC(F)F)c6c4)O5)CC3)n(C[C@@H]3CCO3)c2c1 [Compound 117]	420 pM
O=C(O)c1cc(F)c2nc(CN3CCC(c4cccc5c4OC[C@@H](c4ccc(Cl)cc4)O5)CC3)n(C[C@@H]3CCO3)c2c1F [Compound 121]	31 pM
CO[C@H]1COC[C@H]1n1c(CN2CCC(c3cccc4c3OC[C@@H](c3ccc(Cl)cc3)O4)CC2)nc2c(F)cc(C(=O)O)cc21 [Compound 123]	1900 pM
CC1=C(c2cccc3c2OC[C@@H](c2ccc(Cl)cc2)O3)CCN(Cc2nc3ccc(C(=O)O)cc3n2C[C@@H]2CCO2)C1 [Compound 126]	1600 pM
O=C(O)c1ccc2nc(CN3CCC(c4nccc5c4OC[C@@H](c4ccc(Cl)cc4)O5)CC3)n(C[C@@H]3CCO3)c2c1 [Compound 128]	790 pM
O=C(O)c1ccc2nc(CN3CCC(c4c(F)ccc5c4OC[C@@H](c4ccc(Cl)cc4)O5)CC3)n(C[C@@H]3CCO3)c2c1 [Compound 129, 2-[[4-[(2R)-2-(4-chlorophenyl)-6-fluoro-2,3-dihydro-1,4-benzodioxin-5-yl]-1-piperidyl]methyl]-3-[[(2S)-oxetan-2-yl]methyl]benzimidazole-5-carboxylic acid]	380 pM

The remaining compounds from weak to strong by EC50, led by results:

EC50	SMILES
500000 pM	O=C(O)c1ccc2nc(CN3CCC4(c5cccc6c5OC[C@@H](c5ccc(Cl)cc5)O6)CC4C3)n(C[C@@H]3CCO3)c2c1 (stereo partly drawn) [Compound 127]
100000 pM	N#Cc1ccc([C@@H]2COc3c(cccc3C34CCN(Cc5nc6ccc(C(=O)O)cc6n5C[C@@H]5CCO5)CC3C4)O2)cc1 (stereo partly drawn) [Compound 110, 2-({6-[(2R)-2-(4-cyanophenyl)-2,3-dihydro-1,4-benzodioxin-5-yl]-3-azabicyclo[4.1.0]heptan-3-yl}methyl)-1-{[(2S)-oxetan-2-yl]methyl}-1H-1,3-benzodiazole-6-carboxylic acid]
770 pM	O=C(O)c1ccc2nc(CN3CC=C(c4cccc5c4OC[C@@H](c4ccc(Cl)cc4)O5)CC3)n(C[C@@H]3CCO3)c2c1 [Compound 125]
680 pM	COc1cc(C(=O)O)cc2c1nc(CN1CCC(c3cccc4c3OC[C@@H](c3ccc(C#N)cc3)O4)CC1)n2[C@@H]1COC[C@@H]1OC [Compound 124]
180 pM	N#Cc1ccc([C@@H]2COc3c(cccc3C3CCN(Cc4nc5ccc(C(=O)O)cc5n4CC4(C#N)CC4)CC3)O2)cc1 [Compound 107]
160 pM	O=C(O)c1ccc2nc(CN3CCC(c4ccnc5c4OC[C@@H](c4ccc(Cl)cc4)O5)CC3)n(C[C@@H]3CCO3)c2c1 [Compound 130, 2-((4-((R)-3-(4-chlorophenyl)-2,3-dihydro-[1,4]dioxino[2,3-b]pyridin-8-yl)piperidin-1-yl)methyl)-1-(((S)-oxetan-2-yl)methyl)-1H-benzo[d]imidazole-6-carboxylic acid]
57 pM	N#Cc1ccc([C@@H]2COc3c(cccc3C3CCN(Cc4nc5ccc(C(=O)O)c(F)c5n4C[C@@H]4CCO4)CC3)O2)cc1 [Compound 103]
55 pM	O=C(O)c1cc(F)c2nc(CN3CCC(c4cccc5c4OC[C@@H](c4ccc(C(F)F)cc4)O5)CC3)n(C[C@@H]3CCO3)c2c1 [Compound 115]
41 pM	C[C@H]1CC(c2cccc3c2OC[C@@H](c2ccc(C#N)cc2)O3)CCN1Cc1nc2c(F)cc(C(=O)O)cc2n1C[C@@H]1CCO1 (stereo partly drawn) [Compound 109]
29 pM	O=C(O)c1cc(F)c2nc(CN3CCC(c4cccc5c4OC[C@@H](c4ccc(C(F)(F)F)cc4)O5)CC3)n(C[C@@H]3CCO3)c2c1 [Compound 116]
27 pM	N#Cc1ccc([C@@H]2COc3c(cccc3C3CCN(Cc4nc5c(F)cc(C(=O)O)cc5n4C[C@@H]4CCO4)CC3)O2)cc1 [Compound 104, 2-({4-[(2R)-2-(4-cyanophenyl)-2,3-dihydro-1,4-benzodioxin-5-yl]piperidin-1-yl}methyl)-4-fluoro-1-{[(2S)-oxetan-2-yl]methyl}-1H-1,3-benzodiazole-6-carboxylic acid]
25 pM	N#Cc1ccc([C@@H]2COc3c(cccc3C3CCN(Cc4nc5c(F)cc(C(=O)O)c(F)c5n4C[C@@H]4CCO4)CC3)O2)cc1 [Compound 108, 2-({4-[(2R)-2-(4-cyanophenyl)-2,3-dihydro-1,4-benzodioxin-5-yl]piperidin-1-yl}methyl)-4,7-difluoro-1-{[(2S)-oxetan-2-yl]methyl}-1H-1,3-benzodiazole-6-carboxylic acid]
24 pM	O=C(O)c1ccc2nc(CN3CCC(c4cccc5c4OC[C@@H](c4ccc(Cl)c6ccoc46)O5)CC3)n(C[C@@H]3CCO3)c2c1 [Compound 101]
11 pM	COc1cc(C(=O)O)cc2c1nc(CN1CCC(c3cccc4c3OC[C@@H](c3ccc(C#N)cc3)O4)CC1)n2C[C@@H]1CCO1 [Compound 118, 2-({4-[(2R)-2-(4-cyanophenyl)-2,3-dihydro-1,4-benzodioxin-5-yl]piperidin-1-yl}methyl)-4-methoxy-1-{[(2S)-oxetan-2-yl]methyl}-1H-1,3-benzodiazole-6-carboxylic acid]
11 pM	COc1cc(C(=O)O)cc2c1nc(CN1CCC(c3cccc4c3OC[C@@H](c3ccc(Cl)cc3)O4)CC1)n2C[C@@H]1CCO1 [Compound 119, 2-({4-[(2R)-2-(4-chlorophenyl)-2,3-dihydro-1,4-benzodioxin-5-yl]piperidin-1-yl}methyl)-4-methoxy-1-{[(2S)-oxetan-2-yl]methyl}-1H-1,3-benzodiazole-6-carboxylic acid]
5 pM	COc1cc(C(=O)O)cc2c1nc(CN1CCC(c3cccc4c3OC[C@@H](c3ccc(Cl)c5ccoc35)O4)CC1)n2C[C@@H]1CCO1 [Compound 120, 2-({4-[(2R)-2-(4-chloro-1-benzofuran-7-yl)-2,3-dihydro-1,4-benzodioxin-5-yl]piperidin-1-yl}methyl)-4-methoxy-1-{[(2S)-oxetan-2-yl]methyl}-1H-1,3-benzodiazole-6-carboxylic acid]
1.2 pM	O=C(O)c1cc(F)c2nc(CN3CCC(c4cccc5c4OC[C@@H](c4ccc(Cl)c6ccoc46)O5)CC3)n(C[C@@H]3CCO3)c2c1 [Compound 122, 2-({4-[(2R)-2-(4-chloro-1-benzofuran-7-yl)-2,3-dihydro-1,4-benzodioxin-5-yl]piperidin-1-yl}methyl)-4-fluoro-1-{[(2S)-oxetan-2-yl]methyl}-1H-1,3-benzodiazole-6-carboxylic acid]
